According to US12516080B2, “Remdesivir and remdesivir analogs, solutions, and nanoparticle, liposomal, and microparticle compositions for treating viral infections” (priority 2020, dated 2026):
Like-named read-outs stand apart in the source and are kept apart here.

Assays:
[1] = In-vitro plasma stability, mouse plasma; type: in vitro ADME; conditions: compared with remdesivir
Protocol: (§1) For nucleoside triphosphate analysis, LC-MS/MS was performed by ion-pairing chromatography using LC 20AD UFLC (Shimadzu, Japan) couple with an API 5500 (AB Sciex, USA). The separation was achieved on a 50×2.1 mm Agilent 3.5 μm C18 column. The mobile phase consisted of 3 mM ammonium formate with 10 mM dimethylhexylamine in water (mobile phase A), and 0.1% formic Acid in ACN (mobile phase B). A multi-stage linear gradient initiated with 2% B for 1 min, increased to 95% B in 2 min and maintained with 95% B for 1 min at a flow rate of 0.4 mL/min. Detection was performed on negative ion mode and multiple reaction monitoring modes.
(§2) Remdesivir, analogs and their metabolites alanine metabolite and Nuc were analyzed on an X500R QTOF System (AB Sciex, USA). Chromatographic separation was obtained on a 50×2.1 mm Agilent 3.5 μm C18 column using constant flow rate of 0.6 mL/min. The gradient mobile phase consisted of 0.1% formic acid in water (mobile phase A) and 0.1% formic acid acetonitrile (mobile phase B), running from 5% B to 95% B within 3 min and then maintaining 95% B for 1 min. The eluent was introduced into quadrupole time-of-flight mass spectrometry by electrospray ionization (ESI) operated in positive modes.
(§3) All the analytes were quantified using 10-point standard curves ranging from 5 to 5000 ng/mL.
(§4) To test the in-vitro plasma stability, 5 ul of […] test compound (remdesivir, MMT4-70, MMT4-98, MMT5-1) was added to 495 ul human, hamster, and mouse plasma, respectively. The structures of MMT4-70, MMT4-98, MMT5-1 are shown below. Aliquot of 40 μL was pipetted from the reaction solution and stopped by the addition of 160 μL cold acetonitrile at different sampling time (0, 10 min, 30 min, 60 min and 120 min). The incubation solution was centrifuged at 3500 rpm for 10 minutes to precipitate protein. The supernatant was used for LC/MS/MS analysis.

[2] = In-vitro plasma stability, statements over human, hamster, and mouse plasma; type: in vitro ADME; conditions: different plasmas
Protocol: as §1, §2, §3, §4

[3] = In-vitro plasma stability, human plasma; type: in vitro ADME
Protocol: as §1, §2
All the analytes were quantified using 10-point standard curves ranging from 5 to 5000 ng/mL. […]

[4] = Short-time PK test and initial tissue targeting (plasma, blood, lung); type: in vivo; conditions: hamsters, i.v. 10 mg/Kg
Protocol: as §1, §2, §3
Short-time PK test was used to compare different compounds. Five remdesivir analogs (MMT4-70, MMT4-98, MMT5-1, MMT5-14, and MMT5-15) were compared to remdesivir. The structures of MMT5-14 and MMT5-15 are shown below. Albumin nanocomplexes of the remdesivir analogs were made according to the following procedure: organic phase was prepared by dissolving the synthesized compounds (20 mg) into chloroform (1 ml). 20 ml of marketed HSA solution (5%) was then mixed with organic phase and dispersed vigorously by a rotor-stator homogenizer (Ultra-Turrax T25, 8K rpm-12K rpm, 5 min) to generate a milk-like emulsion. The emulsion was then processed by a high-pressure homogenizer (Nano DeBEE) with the parameters set as pressure=15,000 psi-20,000 psi, condensation temp=5° C., cycles=6. Remaining organic solvent in the product was removed by a rotatory evaporator. The final nano-suspension was filtered with 0.22 μm membrane and freeze dried (primary drying temp=−5° C. for 30 h and secondary drying temp=30° C. for 6 h). The vials were filled with nitrogen before sealing and stored at −20° C.
The formulations and remdesivir (marketed formulation) were i.v. administered to catheterized hamsters with dose of 10 mg/Kg. Each group had two hamsters. At different time points (0.25 hr, 1 hr, 2 hr and 4 hr), plasma was collected for future LC-MS analysis. At 4 hr time point, the hamsters were euthanized and blood and lung were collected for future LC-MS analysis.

[5] = Tissue targeting of formulations (concentration-time profiles and AUC in tissues); type: in vivo; conditions: hamsters, i.v. 10 mg/Kg; for parent compound concentration through all tissues: 0.5-24 hr, short time points
Protocol: as §1, §2, §3
Besides nano formulation, a cyclodextrin-based formulation was also prepared for MMT5-14. Briefly, 2% cremophor and 2% ethanol was added to dissolve the MMT5-14, followed by mixing with 20% SBE-CD. Two formulated MMT5-14 compounds together with remdesivir (marketed formulation) were i.v. administered to catheterized hamsters with dose as 10 mg/Kg. Each group has two hamsters. At different time points (0.5 hr, 1 hr, 4 hr, 7 hr and 24 hr), the hamsters were euthanized and samples including plasma, blood, blood vessel, heart, intestine, kidney, lung, lymph node, spleen, trachea, and others were collected for future LC-MS analysis.

COVID-19 virus = test: In vitro anti-COVID-19 virus activity of remdesivir (literature); type: cell-based, SARS-CoV-2; conditions: assuming intracellular Nuc-TP accumulates more than 10-fold to extracellular remdesivir
human cells = conditions: in vitro metabolism; cited from earlier work
[6] = tested on: PBMC, monocytes, Hela, microphage, and HUVEC; conditions: multiple human and rhesus monkey cells; cited from earlier work
THP-1 cells = test: Cellular uptake of formulations, THP-1 cells; type: cell-based; conditions: 10 μM
[7] = mice, cited from earlier work
[8] = marmosets, cited from earlier work
AMJ2-C11 cells = test: Cellular uptake of formulations, AMJ2-C11 cells; type: cell-based; conditions: 10 μM
[9] = cited from earlier work
B24 cells = conditions: cited from earlier work
Calu-3 cells = test: Cellular uptake of formulations, Calu-3 cells; type: cell-based; conditions: 10 μM

## CCCCCCCCCCCCOC(=O)[C@H](C)NP(=O)(OC[C@H]1O[C@@H](c2ccc3c(N)ncnn23)[C@H](O)[C@@H]1O)Oc1ccccc1 (stereo partly drawn) [MMT4-70]
[1]
  stability taking account of ALA generation: similar/better stability
[2]
  overall stability compared with remdesivir: more stable than remdesivir

## CCCCCCCCCCCCOC(=O)[C@H](C)NP(=O)(OC[C@H]1O[C@@H](c2ccc3c(N)ncnn23)[C@H](O)[C@@H]1O)Oc1cccc2ccccc12 (stereo partly drawn) [MMT4-98]
[1]
  stability taking account of ALA generation: similar/better stability
[2]
  overall stability compared with remdesivir: more stable than remdesivir

## C[C@H](NP(=O)(OC[C@H]1O[C@@H](c2ccc3c(N)ncnn23)[C@H](O)[C@@H]1O)Oc1cccc2ccccc12)C(=O)OCc1ccccc1 (stereo partly drawn) [MMT5-1]
[1]
  stability taking account of ALA generation: similar/better stability
[2]
  overall stability compared with remdesivir: more stable than remdesivir
[3]
  stability ranking in human plasma: behaved best

## CCCCCC/C=C\C/C=C\CCCCCCCCOC(=O)[C@H](C)NP(=O)(OC[C@H]1O[C@@H](c2ccc3c(N)ncnn23)[C@H](O)[C@@H]1O)Oc1ccccc1 (stereo partly drawn) [MMT5-14]
[4]
  stability and concentration in blood and lung tissue (reason for selection): balanced stability and high concentration in blood and lung tissue
[5]
  ALA metabolite concentration in tissues compared with remdesivir: higher
  parent compound concentration through all tissues: much higher
[5]; all analyzed tissues
  AUC of ALA compared with remdesivir: higher AUCs
  AUC of the parent compound compared with remdesivir: higher AUCs
[5]; blood vessel, kidney, and trachea
  parent compound, MMT5-14 versus Nano-MMT5-14 groups: higher
[5]; blood, lung, and spleen
  active metabolite NTP accumulation: behaved better
[5]; most tissues
  parent compound, MMT5-14 versus Nano-MMT5-14 groups, most tissues: No significance

## N#C[C@@]1(c2ccc3c(N)ncnn23)O[C@H](COP(=O)(O)OP(=O)(O)OP(=O)(O)O)[C@@H](O)[C@H]1O [Nuc-TP]
COVID-19 virus; read-out: EC50 of intracellular Nuc-TP against COVID-19 virus
  EC50: > 7.7 µM
COVID-19 virus; read-out: EC90 of intracellular Nuc-TP against COVID-19 virus
  EC90: > 17.6 µM

## CCC(CC)COC(=O)[C@H](C)N[P@](=O)(OC[C@H]1O[C@@](C#N)(c2ccc3c(N)ncnn23)[C@H](O)[C@@H]1O)Oc1ccccc1 [remdesivir, Remdesivir]
Human cells
  other metabolites share: 45%
  remdesivir converted into Nuc-TP: approximately 55%
[6]
  intracellular Nuc-TP versus extracellular concentration of remdesivir: 25-100 folds
THP-1 cells
  alanine metabolite concentration in cells: higher concentrations
[7]; 25-50 mg/kg remdesivir
  concentration of Nuc-TP in the lung: ~3000 nM
[7]; 25-50 mg/kg
  concentration of remdesivir in the lung: did not achieve measurable concentration
[4]; 0.25-4 hr
  stability in plasma (plasma concentration change): quickly metabolized
[4]; short time points
  ALA concentration in plasma: High concentration
  NUC concentration in plasma: High concentration
[8]; i.v. bolus 10 mg/kg remdesivir
  concentration of Nuc-TP in the lung: 800 to 1500 nM
[8]; i.v. bolus 10 mg/kg
  remdesivir in the lungs: not detectable
[5]
  parent compound concentration through all tissues: quickly metabolized
[5]; blood vessel, heart, and lymph node
  active metabolite NTP accumulation: better accumulation
[5]; several tissues like heart and trachea
  NUC concentration in tissues: high concentration
AMJ2-C11 cells
  alanine metabolite concentration in cells: higher concentrations
  generation of NTP in cells: higher generation
[9]; blood cells such as PBMC
  Nuc-TP concentration in PBMC: 30-40 PM
[9]; monkey, 10 mg/kg remdesivir
  concentration of Nuc-TP in the lung: 800 to 1500 nM
[9]; monkey, 10 mg/kg
  concentration of remdesivir in the lung: did not achieve measurable concentration
[9]; monkey, i.v. 10 mg/kg remdesivir, for 12-24 hrs
  plasma nucleoside monophosphate (Nuc-MP) concentration: 0.5 to 1 µM
[9]; monkey, i.v. 10 mg/kg, 30 min
  remdesivir plasma concentration in 30 min: below 0.5 μM
[9]; monkey, i.v. 10 mg/kg, initial
  remdesivir plasma concentration: several micromolar
B24 cells
  intracellular Nuc-TP accumulation relative to extracellular remdesivir: more than 3 fold
Calu-3 cells
  alanine metabolite concentration in cells: higher concentrations
  generation of NTP in cells: higher generation
